The source of these data is patent US6262023A, “WD-40 derived peptides and uses thereof” (The Board of Trustees of the Leland Stanford Junior …, priority 1995, dated 2001).

The test system of experiment [1] is PKC binding to RACK1. In words: Overlay / overlay-extraction assay: inhibition of PKC binding to recombinant RACK1 by peptides. Further details: species or system rat. The note with it: 10 μM peptide preincubated with PKC isozyme mixture; compared with binding in the absence of added peptide; n=3. The method, then: Purified recombinant RACK1 protein (100-250 μg per lane, produced as detailed in Example 2) was subjected to SDS/PAGE and blotted onto nitrocellulose membranes (Ausubel). The nitrocellulose membranes were cut into strips, which were incubated for 0.5 hr in overlay buffer (Example 1) in the presence or absence of a mixture of PKC isozymes (α, β, γ, ε and .zeta., ~10 nM each final concentration) and PKC activators (60 μg/ml phosphatidylserine (PS), 2 μg/ml diacylglycerol (DG), and 1 mM CaCl2). Unbound material was removed by five washes, 5-min each, in overlay wash buffer. Where indicated, PKC activators were present during the incubation of PKC with the nitrocellulose strips. The conditions for each sample and corresponding results are presented in part D below.
The variation in the overlay protocol consisted of incubating the putative binding peptides with a mixture of PKC isozymes for 15 minutes at room temperature before the mixture was used to contact the nitrocellulose strips containing immobilized RACK1.
Nitrocellulose strips containing immobilized RACK1, that had been contacted with a solution containing a mixture of PKC isozymes, were washed and the area corresponding to the 36 kDa (RACK1-containing) band was cut out. The pieces (containing PKC/RACK1 complexes) were incubated with sample buffer for 10 minutes at 80° C. The sample buffer and the nitrocellulose pieces were then placed in wells in the PAGE gel and subjected to SDS-PAGE to elute the bound proteins. The gel was blotted onto nitrocellulose and a Western blot analysis was carried out using the mixture of antibodies (specific for PKC α, β, γ, δ, ε and .zeta. isozymes) described in Example 1 part B. Bound antibodies were detected by ^125 I-protein A.
Peptides derived from or homologous to WD-40 repeats of RACK1 were tested for their ability to inhibit PKC binding to recombinant RACK1. Binding of PKC to RACK1 was carried out using a variation of the overlay procedure described in Example 3 part B. In the experimental samples, peptides were incubated with a solution containing a mixture of rat brain PKC isozymes (~10 nM each) for 15 minutes at room temperature.
Following completion of the modified overlay protocol, the samples were subjected to the overlay-extraction protocol detailed in part B, above.

Experiment [2] concerns PKC-mediated germinal vesicle breakdown (GVBD) in Xenopus oocytes. In words: PKC-mediated Xenopus oocyte maturation (germinal vesicle breakdown, GVBD) after peptide microinjection. Format: cell-based. The method, then: Exposure to insulin induces maturation in Xenopus oocytes via a PKC-dependent pathway (Smith, et al., 1992). The maturation response may be quantified by monitoring the appearance of a white spot in the animal hemisphere of the oocyte, indicating germinal vesicle breakdown (GVBD) and maturation. To assess the effects of RACK1 WD-40-derived peptides on insulin-induced PKC-mediated maturation, 50 nl of a 20 mM NaCl solution containing the indicated peptides [peptide I (SEQ ID NO:1; .circle-solid.), peptide rVI (SEQ ID NO:7; .box-solid.), or injection solution (.quadrature.)] […] One hour following the peptide injections, the oocytes were exposed to a solution containing insulin (8.25 μg/ml) for 2 minutes (t=0). 10-15 oocytes were used for each sample.
The data, representative of three independent experiments, are expressed as the percent of oocytes with GVBD following insulin exposure and are plotted as a function of time in FIG. 5.

Experiment [3] deals with PKC. In words: PKC autophosphorylation. It is filed as biochemical, rat. Particulars: 10 μM peptide; no PS, DG, calcium. The procedure:
Rat brain PKC (~10 nM) was incubated with mild agitation in a final volume of 250 μl of overlay buffer, as in Example 1 either with anti-βPKC pseudosubstrate antibodies (1:10 dilution, Life Technologies, Gaithersburg, Md.) or with the indicated peptide (10 μM). Where indicated, PS (50 μg/ml), DG (0.8 μg/ml) and CaCl2 (1 mM) were also added. The amount of autophosphorylation was determined after 2 hours for the reaction with the anti-pseudosubstrate antibodies, or after 15 minutes for the other samples. 50 μl of a buffer comprised of 20 mM Tris-HCl (pH 7.5), 20 mM MgCl2, 20 μM ATP and 5 μci/ml [γ-^32 P]ATP. The mixture was incubated for 15 minutes at room temperature and the reaction was stopped by adding 60 μl sample buffer (see Example 9). The samples were then boiled for 10 minutes, loaded onto a 10% SDS-PAGE mini gel and electrophoresed. The gel was fixed with 50% methanol and 10% acetic acid for 1 hour, and the autophosphorylation of PKC was determined by autoradiography.

Experiment [4] concerns δ and εPKC isozymes. Description: PKC isozyme translocation and degradation in cardiac myocytes. It is filed as cell-based, rat. Particulars: peptide introduced into cardiac myocytes. From the text:
This peptide-induced translocation was followed by degradation of δ and εPKC isozymes.

Experiment [5] concerns the target βPKC (Rattus norvegicus, UniProt P68403). In words: PKC overlay of immobilized peptides (slot-blot). Format: binding. Set-up: All the solutions contained 5 nM rat brain PKC in peptide overlay buffer; from tissue; host or cells: rat brain. Particulars: DG and calcium. The procedure:
The binding of βPKC to peptide I (SEQ ID NO:1), peptide rVI (SEQ ID NO:7) and control peptide (SEQ ID NO:9) was assessed using a PKC overlay assay similar to that described in Example 3. Increasing amounts of peptides (0.5 μmole, 1.0 μmole, 5.0 μmole and 10.0 μmole) suspended in 20 mM NaCl were applied individually onto nitrocellulose using a slot-blot apparatus (Schleicher and Schuell, Keene, N.H.). The nitrocellulose membrane was washed three times, minutes per wash, in peptide overlay buffer and incubated for two hours in peptide overlay block buffer. The membrane was cut into sections and the sections were transferred to different PKC-containing solutions and incubated for 30 minutes at room temperature. All the solutions contained 5 nM rat brain PKC in peptide overlay buffer. Some solutions additionally contained PS, DG, and calcium. The membranes were then washed three times, 15 minutes per wash, in peptide overlay buffer and incubated in peptide overlay block buffer containing anti-βPKC monoclonal antibodies (1:1000 dilution; Seikagaku Kogyo, Tokyo, Japan). […]
Binding of PKC was determined using chemiluminescence as described in Example 3, part C. Quantitation of PKC binding was carried out using a "MICRO SCAN" 1000 gel analyzer (Galai Inc., Yokneam, Israel).

Chain of βPKC (P68403 whole entry): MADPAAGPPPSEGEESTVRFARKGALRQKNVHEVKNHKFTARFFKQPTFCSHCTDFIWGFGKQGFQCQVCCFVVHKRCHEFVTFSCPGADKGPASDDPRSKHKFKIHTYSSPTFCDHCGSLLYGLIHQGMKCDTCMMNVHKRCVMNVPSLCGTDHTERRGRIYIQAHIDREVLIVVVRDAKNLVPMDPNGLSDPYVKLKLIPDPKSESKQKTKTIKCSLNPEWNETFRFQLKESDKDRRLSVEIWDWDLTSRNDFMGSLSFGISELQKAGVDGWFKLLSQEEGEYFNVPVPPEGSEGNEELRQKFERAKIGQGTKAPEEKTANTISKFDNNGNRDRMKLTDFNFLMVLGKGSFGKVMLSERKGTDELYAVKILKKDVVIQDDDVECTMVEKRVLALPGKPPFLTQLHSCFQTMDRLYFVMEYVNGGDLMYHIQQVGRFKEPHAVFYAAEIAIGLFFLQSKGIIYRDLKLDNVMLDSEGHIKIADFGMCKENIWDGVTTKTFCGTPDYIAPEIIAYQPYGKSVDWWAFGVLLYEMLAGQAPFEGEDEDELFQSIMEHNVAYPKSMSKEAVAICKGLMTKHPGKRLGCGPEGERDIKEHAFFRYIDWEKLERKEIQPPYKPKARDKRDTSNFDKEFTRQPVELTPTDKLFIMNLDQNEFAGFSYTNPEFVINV

As to “peptide I: 15-residue peptide homologous to a sequence in the sixth WD-40 repeat of RACK1; PKC antagonist (KGDYEKILVALCGGN)”, in experiment [1], the “inhibition of PKC binding to recombinant RACK1” value is 81±6%. Further, the “plateau of % GVBD following insulin exposure” value in experiment [2] (50 nl of 50 μM peptide microinjected, insulin 8.25 μg/ml) is given as 45-50 % GVBD. Also, in experiment [2] (between 5 μm-500 μM), the “dose dependence of effect on GVBD” value is recorded as “dose-dependent”. Also, in experiment [2] (peptide microinjected, insulin), the “fraction of oocytes exposed to insulin that reach maturation” value is 45-50%. In addition, the “induction of PKC autophosphorylation in the absence of PKC activators” value in experiment [3] was “Neither peptide I nor control peptide induced PKC autophosphorylation”. Also, in experiment [4] (norepinephrine 2 μM), the “effect on NE-induced translocation of PKC isozymes” value is “inhibited”. For the same substance, in experiment [4], the “degradation of δ and εPKC isozymes” value is reported as “nor does it induce PKC degradation”; the “translocation / distribution of δ and εPKC isozymes in the absence of hormone stimulation” value is listed as “does not affect PKC distribution”. Also, in experiment [5] (PKC with PS, 5 nM rat brain PKC, 0.5-10.0 μmole peptide on nitrocellulose), the “peptide amount at which activated PKC bound to immobilized peptide (as low as)” value was at most 5 µmol. Besides, the “binding of unactivated PKC to immobilized peptide” value in experiment [5] (PKC without PS) is on record as “did not bind”.
